Data from ChEMBL document CHEMBL3881526, “Selective androgen receptor modulators and method of use thereof” (2007).
Activity calls are given as the source filed them. The rule behind the calls is not given here.

Columns and labels:
Rattus norvegicus [1] = assay: Effect on spleen weight in ORX Sprague-Dawley rat at 0.1 to 1 ug/day delivered at constant rate for 14 days via subcutaneous osmotic pumps; type: ADME, tissue-based; conditions: in vivo, sc, 336 h
Rattus norvegicus [2] = assay: Suppression of serum FSH in ORX Sprague-Dawley rat at =>0.3 mg/day delivered at constant rate for 14 days via subcutaneous osmotic pumps; type: functional
[3] = Toxicity in ORX Sprague-Dawley rat assessed as induction of toxicity signs at 0.1 to 1 ug/day delivered at constant rate for 14 days via subcutaneous osmotic pumps by visual examination test; conditions: in vivo, sc, 336 h
[4] = Toxicity in ORX Sprague-Dawley rat assessed as induction of toxicity signs at 0.1 to 1 ug/day delivered at constant rate for 14 days via subcutaneous osmotic pumps by diagnostic hematology test; conditions: in vivo, sc, 336 h
Rattus norvegicus [5] = assay: Androgenic activity in ORX Sprague-Dawley rat assessed as restoration of prostate weight at 0.1 to 1 ug/day delivered at constant rate for 14 days via subcutaneous osmotic pumps; type: functional
Rattus norvegicus [6] = assay: Anabolic activity in ORX Sprague-Dawley rat assessed as restoration of levator ani muscle weight at 0.1 to 1 ug/day delivered at constant rate for 14 days via subcutaneous osmotic pumps; type: functional
Rattus norvegicus [7] = assay: Effect on heart weight in ORX Sprague-Dawley rat at 0.1 to 1 ug/day delivered at constant rate for 14 days via subcutaneous osmotic pumps; type: ADME, tissue-based; conditions: in vivo, sc, 336 h
Rattus norvegicus [8] = assay: Effect on lung weight in ORX Sprague-Dawley rat at 0.1 to 1 ug/day delivered at constant rate for 14 days via subcutaneous osmotic pumps; type: ADME, tissue-based; conditions: sc, 336 h
Rattus norvegicus [9] = assay: Androgenic activity in ORX Sprague-Dawley rat assessed as restoration of seminal vesicles weight at 0.1 to 1 ug/day delivered at constant rate for 14 days via subcutaneous osmotic pumps; type: functional

SMILES: C[C@](O)(COc1ccc(F)cc1)C(=O)Nc1ccc([N+](=O)[O-])c(C(F)(F)F)c1
- Activity (Rattus norvegicus [1]): Non-Toxic
- Activity (Rattus norvegicus [2]): Active
- Activity [3]: Non-Toxic
- Activity [4]: Non-Toxic
- Activity (Rattus norvegicus [5]): <40%
- Activity (Rattus norvegicus [6]): Active
- Activity (Rattus norvegicus [7]): Non-Toxic
- Activity (Rattus norvegicus [8]): Non-Toxic
- Activity (Rattus norvegicus [9]): <40%
